Reference: the supplement of paper PMC6723410

Test system: GUMC-403
Experiment: viability at highest tested concentration (max response) relative to DMSO (% of DMSO control); higher = less cytotoxic
Details: library / dose series: MIPE library, 11-point 1:3 dilution, 48 h
In short: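 The value is viability at the highest tested concentration, expressed relative to vehicle control. Patient-derived GUMC-403 papilloma cells, grown by conditional reprogramming, were seeded at 700/well in 5 μL F + Y medium in 1536-well plates. After an overnight incubation at 37 °C, they received 23 nL of compound by pin tool for 48 h. Readout was CellTiter-Glo luminescence on a ViewLux, normalised to vehicle wells (100%) and empty wells (0%).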

SMILES	viability (top concentration 46.1 µM)	also measured
CN1C(=O)/C=C(/NCCN(CCO)CCCC2=CC=C(C=C2)[N+]([O-])=O)N(C)C1=O	94.3	–
Cc1c(NC(=O)OC[C@@H]2COCCN2)cn2ncnc(Nc3ccc4c(cnn4Cc4cccc(F)c4)c3)c12	75.8	–
CC(C)C(=O)Nc1ncc(-c2cc(C(F)F)nn2-c2c(Cl)cccc2Cl)s1	90.8	–
N[C@H]2CN(CC12CC1)c3c(F)cc4c(c3Cl)[N@@](C=C(C4=O)C(=O)O)C5C[C@H]5F (some centres not stated)	103	–
CC1=C(CC/C(C)=C/CCC2=CCC(C3=CC(=O)OC3O)OC2O)C(C)(C)CCC1 (configuration not stated)	99.7	–
Cn1cc(-c2ccc3ncc(Cc4ccc5ncccc5c4)n3n2)cn1	123	–
NC(=O)c1cccc(N)c1	109	–
CN(C)[C@@H](CCOc1cccc2ccccc12)c1ccccc1	92.3	–
CC/1=C(/C(CC(=O)N1)C2=CC=C(C=C2)C(F)(F)F)C(=O)NC3=C(F)C=C4[NH]N=CC4=C3 (configuration not stated)	108	–
Cc1ccc(F)c(NC(=O)Nc2ccc(-c3cccc4[nH]nc(N)c34)cc2)c1	50.7	–
FC1=CC=C(C=C1)N2/C=C\C=C(C(=O)NC3=CC=C(OC4=C5C=C[NH]C5=NC=C4)C(=C3)F)/C2=O	98.8	–
CC(C)c1ccc(Cn2ccc3c4c(N)nc(NC5CC5)nc4ccc32)cc1	106	–
C[C@]\12CC[C@H](O)CC1=C/C[C@@H]3[C@@H]2CC[C@@]\4(C)[C@H]3C\C=C4C5=CN=CC=C5	–	viability (top concentration 23 µM): 110
Cc1cc(Nc2cc(CN3CCOCC3)c3nc(C)c(Cc4ccc(Cl)cc4F)n3n2)[nH]n1	74.1	–
O=C(Nc1nnc(-c2ccco2)o1)c1cc(-c2ccccc2)nc2ccccc12	89.1	–
CC(C)CC(N(C)C)C1(c2ccc(Cl)cc2)CCC1 (configuration not stated)	122	–
C=C(c1ccc(C(=O)O)cc1)c1cc2c(cc1C)C(C)(C)CCC2(C)C	97.6	–
COC1=CC=C(C=C1O)C/2=C/C(=O)C3=C(O2)C=C(O)C=C3O	76.3	–
CC(C[N+](C)(C)C)OC(N)=O (configuration not stated)	101	–
C1CCN2C[C@H]3C[C@H](\C=C/4CCCN[C@@H]34)[C@H]2C1	120	–
O=C(NCCCCN1CCOCC1)c1cc2ccccc2o1	106	–

SMILES	viability (top concentration 46.1 µM)	also measured
COc1ccc(CC2c3cc(OC)c(OC)cc3CC[N+]2(C)CCC(=O)OCCCCCOC(=O)CC[N+]2(C)CCc3cc(OC)c(OC)cc3C2Cc2ccc(OC)c(OC)c2)cc1OC (configuration not stated)	–	viability (top concentration 7.37 µM): 84
Clc1ccc(C(Cn2ccnc2)OCc2c(Cl)cccc2Cl)c(Cl)c1 (configuration not stated)	113	–
CCCCCCCCCCCCCCCCCCOP(=O)([O-])OC1CC[N+](C)(C)CC1	–	viability (top concentration 23 µM): 127
C=C[C@H]1CN2CCC1C[C@@H]2[C@@H](O)c1ccnc2ccccc12 (some centres not stated)	66.8	–
Clc1ccc2c(N3CCN(CCCN4CCN(c5ccnc6cc(Cl)ccc56)CC4)CC3)ccnc2c1	–	viability (top concentration 23 µM): 119
Nc1nc(Cl)nc2c1ncn2[C@H]1C[C@H](O)[C@@H](CO)O1	120	–
COc1ccc(COc2cc3oc(=O)c4cc(C(C)O)ccc4c3cc2OC)cc1 (configuration not stated)	86.3	–
NNc1nncc2ccccc12	117	–
CN1CCN(CC1)C2=CC3=C([NH]C(=N3)C/4=C(\N)C5=C(F)C=CC=C5NC4=O)C=C2	123	–
CNCCCC12CCC(c3ccccc31)c1ccccc12	105	–
COc1ccc2c(c[n+](C)c3c4cc5c(cc4ccc23)OCO5)c1OC	38.7	–
O=C(NCC[S+](=O)([O-])c1ccc(C(F)(F)F)cn1)c1ccc(Cl)cc1	107	–
CCOC(=O)Nc1ccc(NCc2ccc(F)cc2)cc1N	81.8	–
C[C@@]1(C(=O)Nc2ccc(F)nc2)CCCN1c1nc(Nc2cc(C3CC3)[nH]n2)c2cccn2n1	63.1	–
Cc1cc(C[S+](=O)([O-])c2ccccc2)cc(OCc2ccc(CN3CCC[C@@H]3CO)cc2)c1	116	–
O=C(CCCCCCC(=O)Nc1cccnc1)NO	111	–
COC(=O)[C@@H](N)CCCNC(=N)N[N+](=O)[O-]	107	–
NC(=O)c1cccnc1	136	–
O=c1[nH]c2ccccc2n1C1CCN(Cc2ccc(-c3nc4cc5nc[nH]c5cc4nc3-c3ccccc3)cc2)CC1	103	–
CC[C@@]1(O)C(=O)OCC/2=C1/C=C3\N(CC4=CC5=CC(=CC=C5N=C34)O)C2=O	42.5	–
CCOc1cc(N2CCC(O)CC2)ccc1Nc1ncc2c(n1)N(C)c1ccccc1C(=O)N2C	89.8	–

SMILES	viability (top concentration 46.1 µM)	also measured
Oc1ccc(OCc2ccccc2)cc1	110	–
CCC(=O)NC[C@H](Cc1ccc(OCCc2nc(-c3ccccc3)oc2C)cc1)N/C(C)=C\C(=O)c1ccc(C(F)(F)F)cc1	109	–
ClC1=CC(=CC=C1)N2CCN(CCCN3\N=C4\C=C/C=C\N4C3=O)CC2	103	–
C[C@@H]1C[C@@H]([C@H](O)CC2CC(=O)NC(=O)C2)C(=O)[C@@H](C)C1	89.5	–
CC[C@H]1OC(=O)[C@H](C)[C@@H](O[C@H]2C[C@@](C)(OC)[C@@H](O)[C@H](C)O2)[C@H](C)[C@@H](O[C@@H]2O[C@H](C)C[C@H](N(C)C)[C@H]2O)[C@](C)(OC)C[C@@H](C)C(=O)[C@H](C)[C@@H](O)[C@]1(C)O	112	–
CC(C)c1ccccc1Cc1cc(C(=O)Nc2ccc([S+](=O)([O-])c3ccccc3C(C)(C)C)cc2)c(O)c(O)c1O	56.4	–
CCC(C)(C)c1ccc(CC(C)CN2C[C@@H](C)O[C@@H](C)C2)cc1 (some centres not stated)	96.2	–
CC(C)=CCC/C(C)=C/CC/C(C)=C/CSc1ccccc1C(=O)O	72	–
C[C@H](NC(=O)c1sccc1OCc1ccc(Cl)cc1)c1ccccc1	95.3	–
COC1=C(OCCCN2CCOCC2)C=C3N=CC=C(OC4=CC=C(C=C4F)\C5=C\N=C(\NC6=CC=C(F)C=C6)N(C)C5=O)C3=C1	72.6	–
COCC1(CO)C(=O)C2CCN1CC2 (configuration not stated)	108	–
Cc1cc(SCc2sc(-c3ccc(C(F)(F)F)cc3)nc2C)ccc1OCC(=O)O	133	–
COc1ccc(C(C)=O)c(O)c1	103	–
COC(=O)[C@@H]1CC2=CC(=O)CC[C@]2(C)[C@@]23O[C@@H]2C[C@@]2(C)[C@@H](CC[C@@]24CCC(=O)O4)[C@H]13	128	–
Cl.O[C@@H](CNC[C@H](O)[C@H]1CCc2cc(F)ccc2O1)[C@@H]1CCc2cc(F)ccc2O1	95.8	–
Cc1cccc(-c2n[nH]cc2-c2ccc3ncccc3n2)n1	126	–
CC1=CC=C(C=C1)\C2=N\C3=CC=C(Cl)C=C3OC2	128	–
CC(C(=O)O)c1ccc2c(c1)CC(=O)c1ccccc1S2 (configuration not stated)	103	–
COC(=O)C\1=C(C)\N\C(=C(/C1C2=CC=CC3=NON=C23)C(=O)OC(C)C)C (configuration not stated)	89.7	–
CC(=O)C\1=C(/C)C2=CN=C(NC3=CC=C(C=N3)N4CCNCC4)N=C2N(C5CCCC5)C1=O	93	–
Cc1c(-c2cccc3c(CCCOc4cccc5ccccc45)c(C(=O)O)n(Cc4cccnc4)c23)c(COc2ccc(N3CCN([S+](=O)([O-])N(C)C)CC3)cc2)nn1C	90.8	–

SMILES	viability (top concentration 46.1 µM)	also measured
CN1/C=C(\N=C(NC2=CC=C(C=C2)C(=O)N3CCOCC3)/C1=O)/C4=C(C)C(=CC=C4)NC(=O)C5=CC=C(C=C5)C(C)(C)C	117	–
CN(C)c1ccc(O)c2c1C[C@H]1C[C@H]3[C@H](N(C)C)C(O)=C(C(N)=O)C(=O)[C@@]3(O)C(O)=C1C2=O	110	–
CC[C@H]1OC(=O)[C@H](C)[C@@H](O[C@H]2C[C@@](C)(OC)[C@@H](O)[C@H](C)O2)[C@H](C)[C@@H](O[C@@H]2O[C@@H](C)C[C@H](N(C)C)[C@H]2O)[C@](C)(O)C[C@@H](C)C(=O)[C@H](C)[C@@H](O)[C@]1(C)O	116	–
N#Cc1cc(NC(=O)Nc2nnc(-c3ccncc3)s2)ccc1-c1cn[nH]c1	101	–
COc1ccc(Cn2ccc3ccc(C(=O)NO)cc32)cc1	108	–
Nc1ccc(C(=O)c2cc3c(ccc4ccccc43)[nH]2)cc1	109	–
CC(C)(O)/C=C\C(=O)[C@](C)(O)[C@H]1[C@H](O)C[C@]2(C)[C@@H]3CC=C4[C@@H](C=C(O)C(=O)C4(C)C)[C@]3(C)C(=O)C[C@@]12C	83.7	–
NC(=O)Nc1sc(-c2ccc(F)cc2)cc1C(N)=O	51.7	–
CCC(=C/[C@H](C)C/C=C/C(C)=C/[C@@H](C)C(=O)[C@@H](C)[C@H](O)[C@@H](C)C/C(C)=C/C(=O)O)/C=C/[C@@H]1OC(=O)C=C[C@@H]1C	–	viability (top concentration 1.84 µM): 97.2
OC1=CC2=C(C(=C1)O)C(=O)\C=C(/O2)C3=CC=CC=C3	126	–
O=C(O)CCNC(=O)c1ccc(/N=N/c2ccc(O)c(C(=O)O)c2)cc1	107	–
C=CCc1cccc(/C=N/NC(=O)CN2CCN(Cc3ccccc3)CC2)c1O	73.5	–
Cc1cccc(-c2[nH]c(C(C)(C)C)nc2-c2ccc3nccnc3c2)n1	140	–
COc1ccnc(C[S+]([O-])c2nc3cc(OC(F)F)ccc3[nH]2)c1OC (configuration not stated)	98.7	–
CC1(C)CC(=O)c2c(C(F)(F)F)nn(-c3ccc(C(N)=O)c(NC4CCC(OC(=O)CN)CC4)c3)c2C1 (configuration not stated)	84.3	–
O=C(Nc1c(Cl)cncc1Cl)c1ccc(OC(F)F)c(OCC2CC2)c1	125	–
Cc1ccccc1C(C(=O)NC1CCCCC1)N(C(=O)CNc1ccc(C#N)cc1)c1cccc(F)c1 (configuration not stated)	108	–
O=C(O)c1cccnc1Nc1cccc(C(F)(F)F)c1	129	–
C/C=C/C(=O)N(CC)c1ccccc1C	110	–
